Legend:
[1] = Stability against metabolizing enzymes in the liver (hepatic microsome); conditions: time until remaining amount reached 50%, 37° C.; for half-life at 6 μg/mL: female, Sprague-Dawley (SD), rat, liver microsomes, pH 7.4, Half-life; for Half-life: female SD rat hepatic microsome, 6 μg/mL, pH 7.4
[2] = molecular target: T1, ACAT2 (Mus musculus, UniProt O88908); assay: Measurement of ACAT2-inhibiting activity (murine hepatic microsome, [14C]cholesteryl oleate formation); format: biochemical; conditions: for IC50: murine hepatic microsome membrane fraction, 5 min at 37° C., read-out: Inhibitory activity (concentration required for 50% inhibition of ACAT 2 = IC50); for Specific activity ((IC50 of the test compound)/(IC50 of PRD 043)): relative to PRD 043, class symbols
T1 construct: The resulting sediment was collected as a microsome fraction; from tissue; host or cells: mouse liver (hepatic microsome membrane fraction)
T1 sequence (O88908 1-525): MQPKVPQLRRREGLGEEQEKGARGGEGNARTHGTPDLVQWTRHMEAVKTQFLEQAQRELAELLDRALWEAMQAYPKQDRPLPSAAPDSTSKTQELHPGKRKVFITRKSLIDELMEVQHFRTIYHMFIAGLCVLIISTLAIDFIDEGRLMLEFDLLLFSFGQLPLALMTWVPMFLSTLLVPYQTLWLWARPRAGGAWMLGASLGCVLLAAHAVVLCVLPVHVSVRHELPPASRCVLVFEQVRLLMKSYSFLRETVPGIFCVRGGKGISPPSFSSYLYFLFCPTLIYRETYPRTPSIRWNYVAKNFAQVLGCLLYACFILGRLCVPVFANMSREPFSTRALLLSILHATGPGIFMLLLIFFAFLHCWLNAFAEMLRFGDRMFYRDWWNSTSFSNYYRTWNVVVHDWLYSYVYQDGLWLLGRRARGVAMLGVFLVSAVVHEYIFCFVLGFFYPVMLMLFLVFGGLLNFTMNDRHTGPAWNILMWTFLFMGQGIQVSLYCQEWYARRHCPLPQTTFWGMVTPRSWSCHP
Procedure: The enzyme source which was used was a membrane fraction derived from murine hepatic microsome. Mouse livers were homogenized in buffer solution A (50 mM Tris HCl solution (pH 7.8), 1 mM ethylene diamine tetraacetate, and 1 mM phenylmethanesulfonyl fluoride) using a Potter-type homogenizer (Tokyo-Riko). The homogenate was centrifuged at 12000×g, and the supernatant was subjected to ultracentrifugation at 100000×g. The resulting sediment was collected as a microsome fraction, and this fraction was adjusted so as to have a protein concentration of 5 mg/mL using buffer solution A.
As a control, 10 μL of methanol were used in place of the pyripyropene derivative.
The chloroform layer was evaporated to dryness and was used to spot a thin layer chromatography plate (silica gel plate, Merck, 0.5 mm thickness). Elution for separation was carried out using hexane/diethyl ether/acetic acid (70:30:1, v/v) as an eluant.
wherein the background is the radioactivity of a thin layer chromatography plate which was not spotted.

| half-life at 6 μg/mL [1] | Half-life [1] | IC50 [2] | Specific activity ((IC50 of the test compound)/(IC50 of PRD 043)) [2] | Structure (SMILES) |
| --- | --- | --- | --- | --- |
| ≥ 540 min | >9 h | 0.5 to 1 nM | +++ (10<specific activity≦20) | CC(=O)O[C@H]1CC[C@@]2(C)C(C[C@H](OC(=O)c3ccc(C#N)cc3)[C@@]3(C)Oc4cc(-c5cccnc5)oc(=O)c4[C@H](O)C23)C1(C)COC(=O)c1ccccc1 (stereo partly drawn) [PRD143, 7-O-p-cyanobenzoyl-7,11-dideacetyl-11-O-benzoylpyripyropene A] |
| ≥ 540 min | >9 h | 0.5 to 1 nM | +++ (10<specific activity≦20) | Cc1ccccc1[C@@H]1OCC2(C)C3C[C@H](OC(=O)c4ccc(F)cc4)[C@@]4(C)Oc5cc(-c6cccnc6)oc(=O)c5[C@H](O)C4[C@@]3(C)CC[C@@H]2O1 (stereo partly drawn) [PRD155, 1,11-O-o-methylbenzylidene-7-O-p-fluorobenzoyl-1,7,11-trideacetylpyripyropene A] |
| ≥ 540 min | >9 h | < 0.5 nM | ++++ (20<specific activity) | Cc1ccc([C@@H]2OCC3(C)C4C[C@H](OC(=O)c5ccc(F)cc5)[C@@]5(C)Oc6cc(-c7cccnc7)oc(=O)c6[C@H](O)C5[C@@]4(C)CC[C@@H]3O2)cc1 (stereo partly drawn) [PRD156, 1,11-O-p-methylbenzylidene-7-O-p-fluorobenzoyl-1,7,11-trideacetylpyripyropene A] |
| ≥ 540 min | >9 h | < 0.5 nM | ++++ (20<specific activity) | Cc1cccc(C2OCC3(C)C(CCC4(C)C3CC(OC(=O)c3ccc(C#N)cc3)C3(C)Oc5cc(-c6cccnc6)oc(=O)c5C(O)C43)O2)c1 (stereo not drawn) [PRD157, 1,11-O-m-methylbenzylidene-7-O-p-cyanobenzoyl-1,7,11-trideacetylpyripyropene A] |
| ≥ 540 min | >9 h | 1 to 10 nM | +++ (10<specific activity≦20) | Cc1cccc([C@@H]2OCC3(C)C4C[C@H](OC(=O)c5ccc(F)cc5)[C@@]5(C)Oc6cc(-c7cccnc7)oc(=O)c6[C@H](O)C5[C@@]4(C)CC[C@@H]3O2)c1 (stereo partly drawn) [PRD158, 1,11-O-m-methylbenzylidene-7-O-p-fluorobenzoyl-1,7,11-trideacetylpyripyropene A] |
| ≥ 540 min | >9 h | 0.5 to 1 nM | +++ (10<specific activity≦20) | Cc1ccc([C@@H]2OCC3(C)C4C[C@H](OC(=O)c5ccc(C#N)cc5)[C@@]5(C)Oc6cc(-c7cccnc7)oc(=O)c6[C@H](O)C5[C@@]4(C)CC[C@@H]3O2)c(C)c1 (stereo partly drawn) [PRD159, 1,11-O-o,p-dimethylbenzylidene-7-O-p-cyanobenzoyl-1,7,11-trideacetylpyripyropene A] |
| ≥ 540 min | >9 h | 0.5 to 1 nM | +++ (10<specific activity≦20) | Cc1ccc([C@@H]2OCC3(C)C4C[C@H](OC(=O)c5ccc(F)cc5)[C@@]5(C)Oc6cc(-c7cccnc7)oc(=O)c6[C@H](O)C5[C@@]4(C)CC[C@@H]3O2)c(C)c1 (stereo partly drawn) [PRD160, 1,11-O-o,p-dimethylbenzylidene-7-O-p-fluorobenzoyl-1,7,11-trideacetylpyripyropene A] |
| ≥ 540 min | >9 h | 0.5 to 1 nM | +++ (10<specific activity≦20) | COc1ccccc1[C@@H]1OCC2(C)C3C[C@H](OC(=O)c4ccc(C#N)cc4)[C@@]4(C)Oc5cc(-c6cccnc6)oc(=O)c5[C@H](O)C4[C@@]3(C)CC[C@@H]2O1 (stereo partly drawn) [PRD161, 1,11-O-o-methoxybenzylidene-7-O-p-cyanobenzoyl-1,7,11-trideacetylpyripyropene A] |
| ≥ 540 min | >9 h | 1 to 10 nM | +++ (10<specific activity≦20) | COc1ccccc1[C@@H]1OCC2(C)C3C[C@H](OC(=O)c4ccc(F)cc4)[C@@]4(C)Oc5cc(-c6cccnc6)oc(=O)c5[C@H](O)C4[C@@]3(C)CC[C@@H]2O1 (stereo partly drawn) [PRD162, 1,11-O-o-methoxybenzylidene-7-O-p-fluorobenzoyl-1,7,11-trideacetylpyripyropene A] |
| ≥ 540 min | >9 h | 0.5 to 1 nM | +++ (10<specific activity≦20) | CC12CO[C@@H](c3ccccc3F)O[C@H]1CC[C@@]1(C)C2C[C@H](OC(=O)c2ccc(C#N)cc2)[C@@]2(C)Oc3cc(-c4cccnc4)oc(=O)c3[C@H](O)C12 (stereo partly drawn) [PRD163, 1,11-O-o-fluorobenzylidene-7-O-p-cyanobenzoyl-1,7,11-trideacetylpyripyropene A] |
| ≥ 540 min | >9 h | 0.5 to 1 nM | +++ (10<specific activity≦20) | CC12CO[C@@H](c3ccccc3F)O[C@H]1CC[C@@]1(C)C2C[C@H](OC(=O)c2ccc(F)cc2)[C@@]2(C)Oc3cc(-c4cccnc4)oc(=O)c3[C@H](O)C12 (stereo partly drawn) [PRD164, 1,11-O-o-fluorobenzylidene-7-O-p-fluorobenzoyl-1,7,11-trideacetylpyripyropene A] |
| ≥ 540 min | >9 h | 0.5 to 1 nM | +++ (10<specific activity≦20) | CC1(COC(=O)c2ccccc2)C2C[C@H](OC(=O)c3ccc(C#N)cc3)[C@@]3(C)Oc4cc(-c5cccnc5)oc(=O)c4[C@H](O)C3[C@@]2(C)CC[C@@H]1OC(=O)c1ccccc1 (stereo partly drawn) [PRD166, 7-O-p-cyanobenzoyl-1,11-O-dibenzoyl-1,7,11-trideacetylpyripyropene A] |
| ≥ 540 min | >9 h | 0.5 to 1 nM | +++ (10<specific activity≦20) | CCCCCC(=O)OCC1(C)C2C[C@H](OC(=O)c3ccc(C#N)cc3)[C@@]3(C)Oc4cc(-c5cccnc5)oc(=O)c4[C@H](O)C3[C@@]2(C)CC[C@@H]1OC(=O)CCCCC (stereo partly drawn) [PRD167, 7-O-p-cyanobenzoyl-1,11-O-dihexanoyl-1,7,11-trideacetylpyripyropene A] |
| ≥ 540 min | >9 h | 1 to 10 nM | +++ (10<specific activity≦20) | CC(=O)O[C@H]1CC[C@@]2(C)C(C[C@H](OC(C)=O)[C@@]3(C)Oc4cc(-c5cccnc5)oc(=O)c4[C@H](O)C23)C1(C)COC(=O)c1ccccc1 (stereo partly drawn) [PRD177, 11-O-benzoyl-11-deacetylpyripyropene A] |
| ≥ 540 min | >9 h | 1 to 10 nM | +++ (10<specific activity≦20) | CC12CO[C@@H](c3cccc4ccccc34)O[C@H]1CC[C@@]1(C)C2C[C@H](OC(=O)c2ccc(C#N)cc2)[C@@]2(C)Oc3cc(-c4cccnc4)oc(=O)c3[C@H](O)C12 (stereo partly drawn) [PRD180, 1,11-O-o-naphthylidene-7-O-p-cyanobenzoyl-1,7,11-trideacetylpyripyropene A] |
| ≥ 540 min | >9 h | 0.5 to 1 nM | +++ (10<specific activity≦20) | Cc1cccc(C)c1[C@@H]1OCC2(C)C3C[C@H](OC(=O)c4ccc(C#N)cc4)[C@@]4(C)Oc5cc(-c6cccnc6)oc(=O)c5[C@H](O)C4[C@@]3(C)CC[C@@H]2O1 (stereo partly drawn) [PRD181, 1,11-O-o,o-dimethylbenzylidene-7-O-p-cyanobenzoyl-1,7,11-trideacetylpyripyropene A] |
| ≥ 540 min | >9 h | 1 to 10 nM | +++ (10<specific activity≦20) | CC(=O)O[C@H]1CC2C3(C)CO[C@@H](c4ccccc4)O[C@H]3CC[C@]2(C)C2[C@@H](O)c3c(cc(-c4cccnc4)oc3=O)O[C@@]21C (stereo partly drawn) [PRD186, 1,11-O-benzylidene-1,11-dideacetylpyripyropene A] |
| ≥ 540 min | >9 h | 0.5 to 1 nM | +++ (10<specific activity≦20) | CC(=O)O[C@H]1CC2C(C)(COC(=O)C(C)C)[C@@H](OC(=O)C(C)C)CC[C@]2(C)C2[C@@H](O)c3c(cc(-c4cccnc4)oc3=O)O[C@@]21C (stereo partly drawn) [PRD187, 1,11-O-diisobutyryl-1,11-dideacetylpyripyropene A] |
